Assay results published in patent publication US20110015223A1, “Compounds and methods for treatment of cancer-related anemia” (FibroGen, Inc., priority 2006, published 2011).
Marks after values point to notes of the source that are not given here.

Key:
[1] = system: human H-460 lung cancer tumor-bearing nude mice; test: Blood parameters in nude mice with subcutaneous H-460 lung tumors (anemia of cancer, Example 1); assay type: in vivo; settings: M, W, F x 4, subcutaneous H-460 tumors, study endpoint
Excerpt: (§1) Immuno-compromised athymic CD-1 nu/nu nude mice males (5-6 weeks old) were used in this study (Charles River Laboratories, Wilmington, Mass.). Animals were maintained in a HEPA-filtered environment during the experimental period. Cages, food, and bedding were autoclaved. Animal diets were obtained from Harlan Teklad (Madison, Wis.).
Compounds of the invention were pre-formulated in an aqueous vehicle consisting of 0.1% (w/w) Polysorbate 80 (JT Baker) and 0.5% (w/w) high viscosity carboxymethyl cellulose sodium (Spectrum) to achieve a final 10 ml/kg dosing (oral gavage).
The human H-460 lung cancer cell line used was obtained from the National Cancer Institute. […] The resulting tumor was maintained in nude mice subcutaneously as tumor stock prior to use. Tumor implantation was performed when the stock tumors were in log phase of growth. […] Necrotic tissues were dissected away and viable tissues were cut into 1-2 mm^2 pieces. Tumor fragments were then transplanted subcutaneously to the right flank of the nude mice.
Treatment (administration of compounds of the present invention) was started when the inoculated tumors reached approximately 100 mm^3, and continued for four weeks.
These include red blood cell counts, hemoglobin, hematocrit, mean corpuscular volume, mean corpuscular hemoglobin, mean corpuscular hemoglobin concentration, red blood cell distribution, reticulocytes, reticulocyte counts, and immature reticulocyte fraction.

[2] = system: A549 human lung tumor-bearing nude mice; test: Plasma erythropoietin (EPO) by ELISA in nude mice with subcutaneous A549 lung tumors (Example 2); assay type: in vivo; settings: for Mean [EPO]: four weeks, plasma 6 hours after final dose; for plasma EPO levels compared to vehicle-treated control animals: in words, Compound A 20 or 60 mg/kg, Compound C 20 mg/kg, Compound D 20 or 60 mg/kg as worded in text
Excerpt: as §1
Compounds of the invention were formulated in an aqueous vehicle consisting of 0.1% (w/w) Polysorbate 80 (JT Baker) and 0.5% (w/w) high viscosity carboxymethyl cellulose sodium (Spectrum) to achieve a final 10 ml/kg dosing (oral gavage).
The A549 human lung cancer cell line was used. This cell line has been characterized extensively.
A stock tumor was developed by subcutaneoulsy injecting an A549 cell suspension into stock mice. The resulting tumor was maintained subcutaneously as tumor stock prior to use. Tumor implantation was performed when the stock tumors were in log phase of growth. […] Necrotic tissues were dissected away and viable tissues were cut into 1-2 mm^2 pieces. Tumor fragments were then transplanted subcutaneously to the right flank of the nude mice.
Administration of compounds of the present invention (administered three-times per week) was initiated when the inoculated tumors reached approximately 100 mm^3, and continued for four weeks thereafter.
Plasma was isolated from the animals 6 hours following administration of the final dose of compound. Plasma erythropoietin (EPO) levels were determined by ELISA.

[3] = system: H-460-GFP human lung tumor-bearing nude mice (orthotopically xenografted); test: RBC, HGB and HCT in nude mice with orthotopic H-460-GFP lung tumors (Example 3); assay type: in vivo; settings: 20 mg/kg three-times per week; whole blood 6 hours after final dose; orthotopic H-460-GFP tumors; mean +/- SD
Description: (§2) The effectiveness of administration of compounds of the present invention at preventing the development of anemia of cancer or at treating anemia of cancer in an animal model of cancer was examined. […] Genetically-engineered tumors of GFP-transfected H-460 cells were used in this study. The human H-460 lung cancer cell line used was obtained from the National Cancer Institute. […] Compounds were administered three-times per week
Whole blood was collected from these animals 6 hours following administration of the final dose of compound. Various measurable blood parameters indicative of erythropoiesis and treatment of anemia (red blood cell count, hemoglobin, and hematocrit) were analyzed.

[4] = system: H-460-GFP human lung tumor-bearing nude mice (orthotopically xenografted); test: Plasma erythropoietin (EPO) by ELISA in nude mice with orthotopic H-460-GFP lung tumors (Example 3); assay type: in vivo; settings: orthotopic H-460-GFP tumors; for plasma EPO levels compared to vehicle-treated control animals: in words, Compound A 20 or 60 mg/kg, Compounds C, D, E 20 mg/kg
Description: as §2
Plasma was isolated from these animals 6 hours following administration of the final dose of compound. Plasma erythropoietin (EPO) levels were determined by ELISA.

[5] = system: OVCAR3 tumor-bearing female CB.17 SCID mice; test: Hematocrit in OVCAR3 ovarian tumor-bearing SCID mice (Example 5, FIG. 2); assay type: in vivo; settings: in words (FIG. 2); 60 mg/kg; 29 days treatment
Excerpt: Tumors used in this study were OVCAR3 ovarian tumors. OVCAR3 tumor fragments (1 mm^3) were implanted subcutaneously into the flanks of female CB.17 SCID mice. The number of animals in each treatment group was 10. […] After 29 days treatment, animals were sacrificed and blood was collected for determination of hematocrit (HCT).

[6] = system: MDA-MB-435-GFP breast tumor-bearing female CD-1 nude mice; settings: in words (FIG. 1); 20 mg/kg or 60 mg/kg; 33 days treatment; MDA-MB-435-GFP breast tumors
Description: The effectiveness of methods and compounds of the present invention at treating or preventing the development of anemia of cancer was examined as follows. In this study, experiments were performed essentially as described above in Example 1, with the following modifications. Tumors used in this study were MDA-MB-435-GFP breast tumors, and surgical orthotopic tumor fragment implantation was done directly into breast tissue of female CD-1 nude animals. The number of animals in each group was 15. […] After mean tumor volume in the vehicle control group exceeded 1 cm^3, animals were sacrificed (33 days treatment) and hematocrit was measured.

[7] = 20 mg/kg oral gavage three-times per week
[8] = 20 mg/kg three-times per week, plasma 6 hours after final dose

How did the “Abs Retic, reticulocyte count” value ([1]; 20 mg/kg PO) turn out when COc1ccc(Oc2ccc3c(O)c(C(=O)NCC(=O)O)ncc3c2)cc1 [Cmpd C, {[4-Hydroxy-7-(4-methoxy-phenoxy)-isoquinoline-3-carbonyl]-amino}-acetic acid] was run?
Its value is 457.

What about the “HCT, hematocrit” value ([1]; 20 mg/kg PO) of the same molecule?
The value was 41.1%.

What about the “HGB, hemoglobin” value ([1]; 20 mg/kg PO) of the same molecule?
Its value is 14.0 g/dL.

What about the “IRF, immature RET fraction” value ([1]; 20 mg/kg PO) of the same molecule?
Its value is 0.56.

What about the “MCH, mean corpuscular hemoglobin” value ([1]; 20 mg/kg PO) of the same molecule?
The value was 14.9 pg.

What about the “MCHC, MCH concentration” value ([1]; 20 mg/kg PO) of the same molecule?
Its value is 34.1 g/dL.

And the “MCV, mean corpuscular volume” value ([1]; 20 mg/kg PO)?
The value was 43.8 fL.

What about the “RBC, red blood cells” value ([1]; 20 mg/kg PO) of the same molecule?
The value was 9.36e+06 µL⁻¹.

What about the “RDW, RBC distribution width” value ([1]; 20 mg/kg PO) of the same molecule?
The value was 22.3%.

And the “RET, reticulocytes” value ([1]; 20 mg/kg PO)?
Its value is 4.9%.

What about the “Mean [EPO]” value [2, 7] of the same molecule?
The value was 3581* pg/ml.

And the “plasma EPO levels compared to vehicle-treated control animals” value [2]?
The value was “increased”.

And the HCT [3]?
Its HCT is 47.2 +/− 5.6%.

What about the HGB [3] of the same molecule?
The HGB was 16.3 ± 1.6 g/dL.

What about the RBC [3] of the same molecule?
The RBC was 9.8 +/− 1.1.

And the “Average [EPO]” value [4, 8]?
The value was 5898 pg/mL.

What about the “plasma EPO levels compared to vehicle-treated control animals” value [4] of the same molecule?
Its value is “elevated”.

Which “Mean [EPO]” value ([2]; 6 mg/kg oral gavage three-times per week) does the source give for Cc1nc(C(=O)NCC(=O)O)c(O)c2ccc(Oc3ccccc3)cc12 [Cmpd D, [(4-Hydroxy-1-methyl-7-phenoxy-isoquinoline-3-carbonyl)-amino]-acetic acid] here?
Its value is 455 pg/mL.

And the “Mean [EPO]” value [2, 7]?
Its value is 489 pg/mL.

And the “plasma EPO levels compared to vehicle-treated control animals” value [2]?
Its value is “increased”.

What about the HCT [3] of the same molecule?
Its HCT is 45.6 +/− 1.8%.

And the HGB [3]?
Its HGB is 15.4 ± 0.6 g/dL.

And the RBC [3]?
The RBC was 9.3 +/− 0.5.

What about the “hematocrit levels in OVCAR3 tumor-bearing animals” value [5] of the same molecule?
Its value is “increased”.

And the “Average [EPO]” value [4, 8]?
The value was 2176 pg/mL.

What about the “plasma EPO levels compared to vehicle-treated control animals” value [4] of the same molecule?
The value was “elevated”.

With “rhEPO: recombinant human erythropoietin (EPO)” as the molecule, how does the “Average [EPO]” value ([4]; rhEPO group, dose not given, plasma) read?
The value was 215 pg/mL.

Which “Abs Retic, reticulocyte count” value ([1]; 6 mg/kg PO) does the source give for C[C@H](NC(=O)c1ncc2cc(Oc3ccccc3)ccc2c1O)C(=O)O [Cmpd B, (S)-2-[(4-Hydroxy-7-phenoxy-isoquinoline-3-carbonyl)-amino]-propionic acid] here?
The value was 653.

What about the “HCT, hematocrit” value ([1]; 6 mg/kg PO) of the same molecule?
The value was 37.7%.

What about the “HGB, hemoglobin” value ([1]; 6 mg/kg PO) of the same molecule?
Its value is 12.7 g/dL.

What about the “IRF, immature RET fraction” value ([1]; 6 mg/kg PO) of the same molecule?
The value was 0.64.

What about the “MCH, mean corpuscular hemoglobin” value ([1]; 6 mg/kg PO) of the same molecule?
The value was 14.6 pg.

What about the “MCHC, MCH concentration” value ([1]; 6 mg/kg PO) of the same molecule?
The value was 33.8 g/dL.

And the “MCV, mean corpuscular volume” value ([1]; 6 mg/kg PO)?
Its value is 43.2 fL.

And the “RBC, red blood cells” value ([1]; 6 mg/kg PO)?
The value was 8.71e+06 µL⁻¹.

What about the “RDW, RBC distribution width” value ([1]; 6 mg/kg PO) of the same molecule?
The value was 21.4%.

And the “RET, reticulocytes” value ([1]; 6 mg/kg PO)?
Its value is 7.5%.

What about the “Abs Retic, reticulocyte count” value ([1]; 20 mg/kg PO) of the same molecule?
The value was 552.

And the “HCT, hematocrit” value ([1]; 20 mg/kg PO)?
Its value is 37.7%.

And the “HGB, hemoglobin” value ([1]; 20 mg/kg PO)?
The value was 12.7 g/dL.

What about the “IRF, immature RET fraction” value ([1]; 20 mg/kg PO) of the same molecule?
The value was 0.56.

And the “MCH, mean corpuscular hemoglobin” value ([1]; 20 mg/kg PO)?
Its value is 14.5 pg.

And the “MCHC, MCH concentration” value ([1]; 20 mg/kg PO)?
Its value is 33.7 g/dL.

And the “MCV, mean corpuscular volume” value ([1]; 20 mg/kg PO)?
Its value is 43.0 fL.

And the “RBC, red blood cells” value ([1]; 20 mg/kg PO)?
Its value is 8.78e+06 µL⁻¹.

And the “RDW, RBC distribution width” value ([1]; 20 mg/kg PO)?
The value was 21.7%.

What about the “RET, reticulocytes” value ([1]; 20 mg/kg PO) of the same molecule?
Its value is 6.3%.

For O=C(O)CNC(=O)c1nc(Cl)c2ccccc2c1O [Cmpd A], which “Abs Retic, reticulocyte count” value ([1]; 20 mg/kg PO) is on record?
Its value is 559.

What about the “HCT, hematocrit” value ([1]; 20 mg/kg PO) of the same molecule?
The value was 40.4%.

What about the “HGB, hemoglobin” value ([1]; 20 mg/kg PO) of the same molecule?
The value was 13.3 g/dL.

What about the “IRF, immature RET fraction” value ([1]; 20 mg/kg PO) of the same molecule?
The value was 0.63.

And the “MCH, mean corpuscular hemoglobin” value ([1]; 20 mg/kg PO)?
Its value is 15.1 pg.

And the “MCHC, MCH concentration” value ([1]; 20 mg/kg PO)?
The value was 33.1 g/dL.

And the “RDW, RBC distribution width” value ([1]; 20 mg/kg PO)?
Its value is 21.3%.

What about the “RET, reticulocytes” value ([1]; 20 mg/kg PO) of the same molecule?
Its value is 6.4%.

What about the “Abs Retic, reticulocyte count” value ([1]; 60 mg/kg PO) of the same molecule?
The value was 539.

What about the “HCT, hematocrit” value ([1]; 60 mg/kg PO) of the same molecule?
The value was 39.5%.

And the “HGB, hemoglobin” value ([1]; 60 mg/kg PO)?
Its value is 13.5 g/dL.

And the “IRF, immature RET fraction” value ([1]; 60 mg/kg PO)?
The value was 0.65.

What about the “MCH, mean corpuscular hemoglobin” value ([1]; 60 mg/kg PO) of the same molecule?
Its value is 15.6 pg.

And the “MCHC, MCH concentration” value ([1]; 60 mg/kg PO)?
Its value is 34.2 g/dL.

And the “RDW, RBC distribution width” value ([1]; 60 mg/kg PO)?
Its value is 23.6%.

What about the “RET, reticulocytes” value ([1]; 60 mg/kg PO) of the same molecule?
Its value is 6.5%.

And the “hematocrit levels in OVCAR3 tumor-bearing animals” value [5]?
The value was “increased”.

And the “hematocrit levels compared to non-treated control animals with cancer” value [6]?
Its value is “increased”.
